PubChem BioAssay (NCI)
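Results reflect a 48-hour exposure of cells in 96-well plates to compound at five concentrations. TGI is the concentration that stops growth completely.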

tested on: 786-0 renal; experiment: NCI anticancer screen, dose series, 48 h

Row | SMILES | TGI [µM]
1 | CSC1=C(SC)SC(=C2SC3=C(SC(=C4SCCS4)S3)S2)S1 | > 100
2 | Cc1ccc2c(c1CCCC(C)(C)O)C(=O)C(=O)C(C(C)C)=C2O | > 100
3 | O=C1C(Cl)C(c2ccccc2)N1n1cnc2ccccc2c1=O (centres undefined) | > 100
4 | CC(=O)Oc1ccccc1-c1cc2ccccc2oc1=O | > 100
5 | Cc1ccc2nc(-c3ccc(N)c(I)c3)sc2c1 | 32.7
6 | COc1ccc2c(c1)CC[C@@H]1[C@@H]2CC[C@]2(C)C(=O)/C(=C/c3ccc(OC)c(OC)c3)C[C@@H]12 | > 100
7 | Cn1ccc(C(=O)NCCOCCNC(=O)c2ccn(C)c(=O)c2O)c(O)c1=O | > 100
8 | CC1=C(Br)C(Br)=C(C)S1=O | 55.9
9 | C=CCn1c(=O)n(CC=C)c(=O)n(CC=C)c1=O | > 100
10 | COC(=O)C(=C/c1ccc(OC)cc1)/C(C(=O)O)=C(/C)c1ccccc1 | > 100
11 | C=CCN1C[C@H](C)N([C@H](c2ccc(C(=O)N(CC)CCO)cc2)c2cccc(OC)c2)C[C@H]1C | > 100
12 | CCC1OC2C(CC=C(C)C)=C3OC(C)(O)C(C)(CC)C(OC(=O)c4ccccc4)C3=C3OC(=O)C=C1C32 (centres undefined) | > 100
13 | CCOC(=O)C(N=Nc1ccc(S(N)(=O)=O)cc1)C(C)=O (centres undefined) | > 100
14 | Cc1ccc(C2CC(c3ccco3)=NN2c2ccccc2)o1 (centres undefined) | > 100
15 | C/C(=C1/CCCC2(N=NCC2c2ccccc2)C1=O)c1ccccc1 (centres undefined) | > 100
16 | CN1CCOC1(C)CO (centres undefined) | > 100
17 | CCN1CCN(c2ccc(Nc3ccnc4ccc5nn(C)nc5c34)cc2)CC1 | 22.6
18 | CC(C)CC1[C@@H](OCc2ccccc2)COS(=O)N1Cc1ccccc1 (some centres undefined) | > 100
19 | CC(=O)OC1CC2c3cccc4c3C(CC2N(C)C1=O)CN4C(=O)c1ccccc1 (centres undefined) | 52.2
20 | COc1ccc2c3c1O[C@H]1C(O)CCC4(O)[C@@H](C2)NCC[C@]314 (some centres undefined) | > 100
21 | CNC(=S)N/N=C(C)\C(=N/NC(=S)NC)c1ccccc1 | > 100
22 | O=C(O)c1nc(-c2ccccn2)c(-c2ccccn2)nc1C(=O)O | 13.2
23 | O=[N+]([O-])c1ccc(-n2nnc(C3=NCCCN3)c2-c2ccc(Cl)cc2)cc1 | > 100
24 | COc1cc2c(cc1OC)C(O)[C@H](Br)C(C)(C)O2 (some centres undefined) | > 100
25 | CCCCCC(C[N+]1(C)CCOCC1)C(=O)/C=C/c1ccccc1 (centres undefined) | 4.26
26 | COc1ccc2c(c1C)C(=O)C(O)(CC=C(C)C)O2 (centres undefined) | > 100
27 | CCOC(=O)C1(C(=O)OCC)CN(CC)CN(c2ccccc2)C1 | 35.2
28 | Cc1cccc2c1[C@]13OC(C)[C@]4(C)CC5OC(=O)[C@@]1(C)[C@@H]5[C@]34C(=O)O2 (some centres undefined) | > 100

tested on: CCRF-CEM leukemia; experiment: NCI anticancer screen, dose series, 48 h

Row | SMILES | TGI [µM]
29 | CSC1=C(SC)SC(=C2SC3=C(SC(=C4SCCS4)S3)S2)S1 | > 100
30 | Cc1ccc2c(c1CCCC(C)(C)O)C(=O)C(=O)C(C(C)C)=C2O | > 100
31 | O=C1C(Cl)C(c2ccccc2)N1n1cnc2ccccc2c1=O (centres undefined) | > 100
32 | CN(C)C(=O)OCOC(=O)N(C)C | > 100
33 | CC(=O)Oc1ccccc1-c1cc2ccccc2oc1=O | > 100
34 | COC(=O)c1ccc(/C=C2\N=C(C)OC2=O)cc1 | > 100
35 | Cc1ccc2nc(-c3ccc(N)c(I)c3)sc2c1 | 88.8
36 | O=C1NC(=O)C(CCO)(c2ccccc2)C(=O)N1 | > 100
37 | CC1=C(Br)C(Br)=C(C)S1=O | 6.66
38 | C=CCn1c(=O)n(CC=C)c(=O)n(CC=C)c1=O | > 100
39 | CCCCN1C=CN2c3nc4cc(C)c(C)cc4n3C(C(=O)OC)=C(C(=O)OC)C12 (centres undefined) | > 100
40 | COC(=O)C(=C/c1ccc(OC)cc1)/C(C(=O)O)=C(/C)c1ccccc1 | > 100
41 | C=C1C(=O)O[C@H]2[C@H]1[C@@H](OC(=O)C=C(C)C)CC1=C[C@@H](C[C@@]3(C)O[C@@H]23)OC1=O | 1120
42 | CCC1OC2C(CC=C(C)C)=C3OC(C)(O)C(C)(CC)C(OC(=O)c4ccccc4)C3=C3OC(=O)C=C1C32 (centres undefined) | > 100
43 | CCOC(=O)C(N=Nc1ccc(S(N)(=O)=O)cc1)C(C)=O (centres undefined) | > 100
44 | Cc1ccc(C2CC(c3ccco3)=NN2c2ccccc2)o1 (centres undefined) | > 100

Row | SMILES | TGI [µM]
45 | C/C(=C1/CCCC2(N=NCC2c2ccccc2)C1=O)c1ccccc1 (centres undefined) | 66.1
46 | CN1CCOC1(C)CO (centres undefined) | > 100
47 | CCN1CCN(c2ccc(Nc3ccnc4ccc5nn(C)nc5c34)cc2)CC1 | > 100
48 | CC(C)CC1[C@@H](OCc2ccccc2)COS(=O)N1Cc1ccccc1 (some centres undefined) | > 100
49 | OCC1OC(n2cnc3c2NC=NC[C@H]3O)C(O)C1O (some centres undefined) | > 284
50 | CC(=O)OC1CC2c3cccc4c3C(CC2N(C)C1=O)CN4C(=O)c1ccccc1 (centres undefined) | > 100
51 | COc1ccc2c3c1O[C@H]1C(O)CCC4(O)[C@@H](C2)NCC[C@]314 (some centres undefined) | > 100
52 | O=C(O)c1nc(-c2ccccn2)c(-c2ccccn2)nc1C(=O)O | > 43.1
53 | O=[N+]([O-])c1ccc(-n2nnc(C3=NCCCN3)c2-c2ccc(Cl)cc2)cc1 | > 100
54 | COc1cc2c(cc1OC)C(O)[C@H](Br)C(C)(C)O2 (some centres undefined) | > 100
55 | CCCCCC(C[N+]1(C)CCOCC1)C(=O)/C=C/c1ccccc1 (centres undefined) | > 35.3
56 | COc1ccc2c(c1C)C(=O)C(O)(CC=C(C)C)O2 (centres undefined) | > 100
57 | CCOC(=O)C1(C(=O)OCC)CN(CC)CN(c2ccccc2)C1 | 59.1
58 | Cc1cccc2c1[C@]13OC(C)[C@]4(C)CC5OC(=O)[C@@]1(C)[C@@H]5[C@]34C(=O)O2 (some centres undefined) | > 100
59 | CC(=O)OCC1OC(Nc2ncc(-c3ccc(C)cc3)s2)C(OC(C)=O)C(OC(C)=O)C1OC(C)=O (centres undefined) | > 100

tested on: DU-145 prostate; experiment: NCI anticancer screen, dose series, 48 h

Row | SMILES | TGI [µM]
60 | CSC1=C(SC)SC(=C2SC3=C(SC(=C4SCCS4)S3)S2)S1 | > 100
61 | CC(=O)Oc1ccccc1-c1cc2ccccc2oc1=O | > 100
62 | COc1ccc2c(c1)CC[C@@H]1[C@@H]2CC[C@]2(C)C(=O)/C(=C/c3ccc(OC)c(OC)c3)C[C@@H]12 | > 100
63 | Cn1ccc(C(=O)NCCOCCNC(=O)c2ccn(C)c(=O)c2O)c(O)c1=O | > 100
64 | C=CCN1C[C@H](C)N([C@H](c2ccc(C(=O)N(CC)CCO)cc2)c2cccc(OC)c2)C[C@H]1C | > 100
65 | CCC1OC2C(CC=C(C)C)=C3OC(C)(O)C(C)(CC)C(OC(=O)c4ccccc4)C3=C3OC(=O)C=C1C32 (centres undefined) | > 100
66 | CC(C)CC1[C@@H](OCc2ccccc2)COS(=O)N1Cc1ccccc1 (some centres undefined) | > 100
67 | CC(=O)OC1CC2c3cccc4c3C(CC2N(C)C1=O)CN4C(=O)c1ccccc1 (centres undefined) | 42.1
68 | COc1ccc2c3c1O[C@H]1C(O)CCC4(O)[C@@H](C2)NCC[C@]314 (some centres undefined) | > 100
69 | CNC(=S)N/N=C(C)\C(=N/NC(=S)NC)c1ccccc1 | > 100
70 | O=C(O)c1nc(-c2ccccn2)c(-c2ccccn2)nc1C(=O)O | 12.1
71 | COc1ccc2c(c1C)C(=O)C(O)(CC=C(C)C)O2 (centres undefined) | > 100
72 | CCOC(=O)C1(C(=O)OCC)CN(CC)CN(c2ccccc2)C1 | 91.7
73 | Cc1cccc2c1[C@]13OC(C)[C@]4(C)CC5OC(=O)[C@@]1(C)[C@@H]5[C@]34C(=O)O2 (some centres undefined) | > 100

tested on: LOX IMVI melanoma; experiment: NCI anticancer screen, dose series, 48 h

Row | SMILES | TGI [µM]
74 | CSC1=C(SC)SC(=C2SC3=C(SC(=C4SCCS4)S3)S2)S1 | > 100
75 | O=C1C(Cl)C(c2ccccc2)N1n1cnc2ccccc2c1=O (centres undefined) | > 100
76 | CN(C)C(=O)OCOC(=O)N(C)C | > 100
77 | CC(=O)Oc1ccccc1-c1cc2ccccc2oc1=O | > 100
78 | COC(=O)c1ccc(/C=C2\N=C(C)OC2=O)cc1 | > 100
79 | O=C1NC(=O)C(CCO)(c2ccccc2)C(=O)N1 | > 31.6
80 | Cn1ccc(C(=O)NCCOCCNC(=O)c2ccn(C)c(=O)c2O)c(O)c1=O | > 100
81 | CC1=C(Br)C(Br)=C(C)S1=O | 27.8
82 | C=CCn1c(=O)n(CC=C)c(=O)n(CC=C)c1=O | > 100
83 | CCCCN1C=CN2c3nc4cc(C)c(C)cc4n3C(C(=O)OC)=C(C(=O)OC)C12 (centres undefined) | > 100
84 | COC(=O)C(=C/c1ccc(OC)cc1)/C(C(=O)O)=C(/C)c1ccccc1 | > 100
85 | CCC1OC2C(CC=C(C)C)=C3OC(C)(O)C(C)(CC)C(OC(=O)c4ccccc4)C3=C3OC(=O)C=C1C32 (centres undefined) | 46.2
86 | CCOC(=O)C(N=Nc1ccc(S(N)(=O)=O)cc1)C(C)=O (centres undefined) | > 100
87 | Cc1ccc(C2CC(c3ccco3)=NN2c2ccccc2)o1 (centres undefined) | > 100
88 | C/C(=C1/CCCC2(N=NCC2c2ccccc2)C1=O)c1ccccc1 (centres undefined) | > 100
89 | CN1CCOC1(C)CO (centres undefined) | > 100
90 | CCN1CCN(c2ccc(Nc3ccnc4ccc5nn(C)nc5c34)cc2)CC1 | 20.1
91 | CC(C)CC1[C@@H](OCc2ccccc2)COS(=O)N1Cc1ccccc1 (some centres undefined) | > 100
92 | OCC1OC(n2cnc3c2NC=NC[C@H]3O)C(O)C1O (some centres undefined) | > 450
93 | CC(=O)OC1CC2c3cccc4c3C(CC2N(C)C1=O)CN4C(=O)c1ccccc1 (centres undefined) | 25.3
94 | COc1ccc2c3c1O[C@H]1C(O)CCC4(O)[C@@H](C2)NCC[C@]314 (some centres undefined) | > 100
95 | CNC(=S)N/N=C(C)\C(=N/NC(=S)NC)c1ccccc1 | > 100
96 | O=C(O)c1nc(-c2ccccn2)c(-c2ccccn2)nc1C(=O)O | 16.7
97 | O=[N+]([O-])c1ccc(-n2nnc(C3=NCCCN3)c2-c2ccc(Cl)cc2)cc1 | > 100
98 | COc1cc2c(cc1OC)C(O)[C@H](Br)C(C)(C)O2 (some centres undefined) | > 100
99 | CCCCCC(C[N+]1(C)CCOCC1)C(=O)/C=C/c1ccccc1 (centres undefined) | 4.02
100 | COc1ccc2c(c1C)C(=O)C(O)(CC=C(C)C)O2 (centres undefined) | > 100
101 | CCOC(=O)C1(C(=O)OCC)CN(CC)CN(c2ccccc2)C1 | > 100
102 | Cc1cccc2c1[C@]13OC(C)[C@]4(C)CC5OC(=O)[C@@]1(C)[C@@H]5[C@]34C(=O)O2 (some centres undefined) | > 100
103 | CC(=O)OCC1OC(Nc2ncc(-c3ccc(C)cc3)s2)C(OC(C)=O)C(OC(C)=O)C1OC(C)=O (centres undefined) | > 68.3

tested on: M14 melanoma; experiment: NCI anticancer screen, dose series, 48 h

Row | SMILES | TGI [µM]
104 | CSC1=C(SC)SC(=C2SC3=C(SC(=C4SCCS4)S3)S2)S1 | > 100
105 | Cc1ccc2c(c1CCCC(C)(C)O)C(=O)C(=O)C(C(C)C)=C2O | > 100
106 | O=C1C(Cl)C(c2ccccc2)N1n1cnc2ccccc2c1=O (centres undefined) | > 100
107 | CC(=O)Oc1ccccc1-c1cc2ccccc2oc1=O | > 100
108 | COC(=O)c1ccc(/C=C2\N=C(C)OC2=O)cc1 | > 100
109 | Cc1ccc2nc(-c3ccc(N)c(I)c3)sc2c1 | > 100
